In a melting point compilation (Tetko et al.; mined from patent text by program, amines drawn as free bases though some values may be those of a salt):

| Structure (SMILES) | melting point |
| --- | --- |
| COC(=O)c1cc2c([nH]c3ccccc32)s1 | 200 to 201 °C |
| Cc1c(C)c(N(C)C(=O)CC(C)(C)C)c(C)c2c1OCC2c1ccc(C(C)C)cc1 (stereo not given) | 80 to 82 °C |
| CSC1=NS(=O)(=O)c2cscc21 | 184 to 186 °C |
| C=CC(=O)NCCCCCC(=O)O | 88 to 90 °C |
| Cc1nc(-c2ccc(Br)cc2)n(-c2ccc(S(C)(=O)=O)cc2)n1 | 208 to 209 °C |
| CCN1CCc2c(NC(C)=O)ccc(Br)c2C1 | 168 to 169 °C |
| Cc1cc([N+](=O)[O-])ccc1Oc1ccc(C(C)(C)c2cccc(C(C)(C)c3ccc(Oc4ccc([N+](=O)[O-])cc4C)cc3)c2)cc1 | 116 to 118 °C |
| Cc1ccc(OC(F)C(F)(F)F)c([N+](=O)[O-])c1[N+](=O)[O-] (stereo not given) | 35 °C |
| O=[N+]([O-])C=C1NCCCS1 | 76 to 78 °C |
| O=[N+]([O-])c1cccc2nc3c(nc12)N1CCCCC1CO3 (stereo not given) | 182 to 184 °C |
| CSCCCCCn1c(CCC(C)=O)nc2c(N)nc3ccccc3c21 | 179 to 181 °C |
| Cc1cc(C)c(C(O)c2cc(-n3ccnc3)ccc2Cl)c(C)c1 (stereo not given) | 206 to 207 °C |
| c1ccc2c(c1)N(CC1CCCCC1)CC21COc2cc3c(cc21)OCO3 (stereo not given) | 153 to 154 °C |
| CCCN1C(=O)C(=O)c2cc(SCCCc3ccc(C(=O)O)cc3)ccc21 | 140 to 142 °C |
| O=C(O)c1ccccc1C(=O)c1ccccc1Cl | 112 to 116 °C |
| O=C(NC1CCN(CCc2ccccc2)C1)C12CC3CC(CC(C3)C1)C2 (stereo not given) | 119 to 121 °C |
| COC(=O)CS(=O)(=O)N1CC=C(c2ccc(Br)c(C)c2)CC1 | 110 to 112 °C |
| COc1cc(Oc2csc(C(F)(F)F)c2)nc(-c2ccc(C(F)(F)F)cc2)n1 | 91 to 93 °C |
| CC(=O)c1cccc(NC(=O)C2CCC2)c1 | 155 to 157 °C |
| CC(=O)SCC(Cc1ccccc1)C(=O)Nc1ccc(O)c(C(=O)O)c1 (stereo not given) | 185 to 188 °C |
| Cc1cc(OC(=O)c2ccccc2)ccc1OCc1ccccc1 | 118 to 119 °C |
| CNC(=O)CN1CCC(C(O)(c2ccc(F)cc2)c2ccc(F)cc2)CC1 | 122 to 124 °C |
| CCOC(=O)CSc1nc(Cl)cc(-c2ccccc2)n1 | 82 to 84 °C |
| O=C(O)C=Cc1ccc(Oc2c(-c3ccc(O)cc3)ccc3cc(O)ccc23)cc1 | 150 to 153 °C |
| O=C(O)c1cccc(-c2ccc3c(n2)C(Oc2ccc(Cl)cc2Cl)CC3)c1 (stereo not given) | 198 to 204 °C |

| Structure (SMILES) | melting point |
| --- | --- |
| CC(=O)Nc1cc(C)c([N+](=O)[O-])cc1CCOC(C)=O | 125 °C |
| Cc1nc2ccccc2n1Cc1ccc(C(=O)O)c2ccccc12 | 292 to 293 °C |
| NCCCP(=O)(O)Cc1ccccc1 | 69 to 72 °C |
| CCOC(=O)C(=CNC1CC1)C(=O)c1cc(Cl)c(F)c(F)c1F | 71 to 73 °C |
| Cc1nc2c3c(ccc2[nH]1)[C@@H](O)[C@H](O)[C@@H](c1ccccc1)O3 | 163 °C |
| Cc1ccc(S(=O)(=O)OCC2CCc3ncsc3C2)cc1 (stereo not given) | 90 to 91 °C |
| Cc1ccc(OC(=CC(=O)c2ccc(Br)cc2)C(=O)c2ccc(Br)cc2)cc1 | 137 to 138 °C |
| COCCn1cc(-c2ccc3nnn(Cc4ccc5ncccc5c4)c3n2)cn1 | 162 to 164 °C |
| CC(C)(C)OC(=O)N1CCNC(=O)C1Cc1ccc(F)cc1 (stereo not given) | 145 to 147 °C |
| O=C(NCc1cccnc1)N(c1ccccc1)c1ccccc1 | 143 °C |
| CC(C)c1cc2c(c3c1C(=O)N(CCl)S3(=O)=O)OCO2 | 174 to 176 °C |
| Cc1cn(C2CC(O)C(CO)(N=[N+]=[N-])O2)c(=O)[nH]c1=O (stereo not given) | 175 to 176 °C |
| Nc1ncc(-c2ccccc2)nc1Oc1ccccc1 | 129 to 131 °C |
| COc1ccc(-c2cc3c(s2)c(=O)c(SC)cn3C)cc1 | 182 to 184 °C |
| COc1ccc(COC(=O)n2c(SCc3ccc(C)cn3)nc3cscc32)cc1 | 120 to 121 °C |
| N#Cc1cc(C(N)=O)ccc1Cl | 193 °C |
| COc1ccccc1-c1ccc(C(=O)N2Cc3ccc(C(=O)NCc4cccnc4)n3Cc3ccccc32)cc1C | 119 to 124 °C |
| CCC12CCC3C4CCC(=O)C=C4CCC3C1CCC2(O)C(C)O (stereo not given) | 159 to 164 °C |
| O=C(O)CCn1cnc2c(Cl)ncnc21 | 163 to 165 °C |
| COc1cccc2c1cc(C(=O)NCCc1ccncc1)n2Cc1cccc(C(=N)NO)c1 | 220 to 222 °C |
| Nc1c2c(nc3ccccc13)C1CCC2CC1 | 197 to 199 °C |
| COC(=O)c1ccc2c(c1)ncn2-c1ccc(OC)c(C2CCCC2)c1 | 129 to 131 °C |
| CCCCOc1c(CNC(=O)OC(C)(C)C)n(CC(C)C)c(=O)c2ccc(-c3noc(=O)[nH]3)cc12 | 223 to 224 °C |
| FC(F)(F)c1ccc(-c2cc(Oc3ccc4cccnc4c3)nnc2-c2ccccc2)cc1 | 178 to 183 °C |
| N#Cc1ccc(CCn2ccn(C3CCc4ccccc4C3)c2=S)cc1 (stereo not given) | 169 to 170 °C |

| Structure (SMILES) | melting point |
| --- | --- |
| CCOC(=O)c1c(S(N)(=O)=O)nc2sccn12 | 164 to 166 °C |
| c1cc(OC[C@H]2CO2)c2cccnc2c1 | 79 to 81 °C |
| CC(=O)OCc1nccc(OCCCOc2ccc3ncc([N+](=O)[O-])n3n2)c1C | 148 to 151 °C |
| COc1ccc(-n2c(=O)n(O)c(=O)c3cc(F)c(N4CCCC4)cc32)cc1 | 224 to 226 °C |
| C=CCOc1ccc(-c2ccc(O)cc2)cc1 | 168 to 170 °C |
| CCOP(=O)(NCc1ccc2c(c1)-c1n[nH]c(=O)c3cccc(c13)O2)OCC | 222 to 224 °C |
| COc1ccc(C=O)c(-c2ccc(O[Si](C)(C)C(C)(C)C)cc2)c1O | 103 to 106 °C |
| S=C(Nc1cc(Cl)cc(Cl)c1)Nc1cc(OCc2cccc3ccccc23)ccc1Br | 149 to 151 °C |
| CN(Cc1cc2c(=O)c(C(=O)NCc3ccc(Cl)cc3)cn(C)c2o1)CC(O)c1cccnc1 (stereo not given) | 145 to 149 °C |
| Cc1cc2cc(P(=O)(O)O)c(=O)[nH]c2cc1C | > 300 °C |
| CN(Cc1cccc2ccccc12)c1nc(N2CCC(N(C)C)CC2)nc2c(N3CCOCC3)ncnc12 | 124 to 126 °C |
| O=C(O)c1ccc2nc(-c3ccccc3)c(-c3ccccc3)nc2c1 | 290 to 292 °C |
| C[C@H](CO)Nc1cc(-n2cccn2)nc(-c2cccs2)n1 | 136 to 137 °C |
| O=S(=O)(c1ccccc1)N1CCC(C(c2ccc(F)cc2)c2ccc(F)cc2)CC1 | 180 to 184 °C |
| COc1ccc(CNc2nc(N3CCC(C(=O)O)CC3)nc3sc(C(F)(F)F)cc23)cc1OC | 203 °C |
| CSC(SC)=C(C(=O)c1ccc(C(F)(F)F)cc1S(C)(=O)=O)C(=O)C1CC1 | 137 to 139 °C |
| CCN(CC)c1ccc(F)c2nc(Nc3ccc(Cl)cc3Cl)[nH]c12 | 204 to 205 °C |
| Cc1c(OCC(=O)O)ccc2c(=O)c3ccccc3oc12 | 244 to 247 °C |
| COc1ccc2c(c1OCC#N)CCCC2 | 50 to 51 °C |
| CCOC(=O)c1cnc2onc(C)c2c1N(C)S(=O)(=O)c1ccc(Oc2ccncc2)cc1 | 155 to 157 °C |
| COc1ccc(CNc2cc[nH]n2)cc1OC1CCCC1 | 106 to 110 °C |
| COc1ccc2nc3cc(Cl)ccc3c(Oc3ccc(Cl)cc3)c2c1 | 152 to 153 °C |
| CC1CC=C(Nc2ccccc2)c2ncc(C(=O)O)c(=O)n21 (stereo not given) | 160 to 162 °C |
| CC(=O)OC1C(C)=C(C)C(=O)N1c1ccc(Cl)c(Cl)c1 (stereo not given) | 109 to 110 °C |
| CCC(=O)Nc1c(N)cc(Br)cc1OCc1ccccc1 | 198 to 201 °C |

| Structure (SMILES) | melting point |
| --- | --- |
| O=C(Nc1nonc1-c1ccc(Cl)cc1)NC1CCCCC1 | 216 °C |
| COC(=O)c1ccc2oc(-c3ccc(C(F)(F)F)cc3)cc2c1 | 180 °C |
| Brc1ccc(C#Cc2c3ccccc3c(C#Cc3ccc(Br)cc3)c3ccccc23)cc1 | 305 °C |
| Cc1ccc(C)c(-c2cccc3c2OC(CN)C3)c1 (stereo not given) | > 225 °C |
| O=C(O)c1cccn2c(=O)c3c(nc12)CCC3 | 189 to 193 °C |
| O=C(COCc1ccccc1)Nc1ccc(OC(=O)COCc2ccccc2)cc1 | 55.5 to 58.5 °C |
| Cc1cccnc1COc1nn2c(-c3ccccc3)nnc2cc1C12CCC(CC1)C2 | 214 to 216 °C |
| CC[Si](CC)(CC)c1cccc2c1oc1c([Si](CC)(CC)CC)cccc12 | 59 to 61 °C |
| C[C@H](CC(=O)[C@H](Cc1ccccc1)OC(=O)c1ccccc1)C(=O)N1CCC[C@H]1C(=O)O | 130 to 134 °C |
| CC(C)c1nc(-c2ncn3c2COC(=O)c2ccccc2-3)no1 | 143 to 144 °C |
| CC1(C)CC(OC(=O)c2ccccc2)CC(C)(C)N1OCC=Cc1ccccc1 | 115 to 116 °C |
| COC(=O)C1CC(O)CN1C(=O)c1ccc2c(c1)OCCO2 (stereo not given) | 185 °C |
| CC(C)(C)OC(=O)N1CCC(c2ccc3oc(-c4ccc(C(F)(F)F)cc4)nc3c2)CC1 | 161 to 164 °C |
| CC1CN(c2c(F)c(F)c3c(=O)c(C(=O)O)cn(C4CC4)c3c2F)CCN1 (stereo not given) | 235 to 237 °C |
| Cc1cc(F)c(-n2ccc(O)n2)cc1SCC(F)(F)F | 166 to 168 °C |
| COc1cc(C(C)C)c2c(c1)S(=O)(=O)N(COC(=O)c1c(C)c3cc(Cl)ccc3n1C)C2=O | 183 to 184 °C |
| O=S(=O)(c1ccccc1)n1ccc2c(CO)cccc21 | 89 to 91 °C |
| O=C(O)c1ccc(C(=O)/C=C/c2ccc(N3CCCC3)c(-c3cccs3)c2)cc1 | 212 to 214 °C |
| CCOC(=O)c1cn(Cc2ccccc2)nc1OCc1ccc(OCc2nc(-c3ccco3)oc2C)cc1OC | 137 to 138 °C |
| CC(C)c1ccc(S(=O)(=O)c2ccc(F)cc2)c(C(C)C)c1 | 75 to 80 °C |
| COc1cccc(OC)c1-c1ccc(CC[C@H](NC(=O)c2c(Cl)cccc2Cl)C(=O)O)cc1 | 105 to 107 °C |
| N#CC1=C2C(=NC1=O)c1c(OCc3cccs3)ccc3cccc2c13 | 241 to 243 °C |
| CC(C)(C)Oc1ccc(C[C@H](NC(=O)OCc2ccccc2)C(=O)C=[N+]=[N-])cc1 | 80 to 82 °C |
| COc1ccc2c(c1)C(c1ccc([N+](=O)[O-])cc1)=Nn1c(C)nnc1C2 | 192 to 194 °C |
| CCOC(=O)c1cc2c3c(c(-c4ccccc4Cl)cc2n1CCCOC)C(=O)NC3=O | 235 to 237 °C |
